Assay results published in patent US20170216421A1, “MANUFACTURING OF MULTI-DOSE INJECTION READY DENDRITIC CELL VACCINES, COMBINATION THERAPIES FOR BLOCKING HER2 AND HER3, AND ESTROGEN RECEPTOR POSITIVE HER2 BREAST RECEPTOR POSITIVE HER2 BREAST CANCER THERAPY” (THE TRUSTEES OF THE UNIVERSITY OF PENNSYLVANIA, priority 2015, published 2017).

Experiments:
[1] = tested on: BRAF^V600EPTEN^−/− melanoma; assay: Transplantable melanoma model: tumor growth and survival; type: in vivo, mice; settings: administered alone
Protocol: A transplantable BRAF^V600EPTEN^−/− melanoma model was developed in the C57Bl/6 background. DC1 were generated from bone marrow precursors using Flt3, IL-6, GM-CSF, IL-4, CpG and LPS, and pulsed with class I BRAF^V600E peptide. In addition to untreated and ovalbumin-DC1 controls, BRAF^V600E-DC1 (2× weekly injections) and PLX were administered alone or in designated combinations to tumor-bearing mice (n=10 each). Tumor growth and survival were determined.

[2] = tested on: MCF7 (HER2^neg 2+/ER^pos); assay: Alamar Blue metabolic activity assay; type: cell-based, human; settings: 72 hours
Protocol: (§1) Breast cancer cell lines, SKBR3 (HER2^pos/ER^neg) and MCF7 (HER2^neg 2+/ER^pos), were treated with Th1 cytokines (IFNγ and TNFα), a tamoxifen metabolite (4-hydroxytamoxifen, “4HT”), or both for 72 hours. Metabolic activity was measured via Alamar Blue assay.

SKBR3 (HER2^pos/ER^neg) = assay: Alamar Blue metabolic activity assay; type: cell-based, human; settings: 72 hours
Protocol: as §1

Row | Compound | median survival [1] [days] | anti-tumor activity / metabolic activity [2] | anti-tumor activity / metabolic activity (SKBR3 (HER2^pos/ER^neg))
1 | CCCS(=O)(=O)Nc1ccc(F)c(C(=O)c2c[nH]c3ncc(-c4ccc(Cl)cc4)cc23)c1F [PLX, vemurafenib] | 43.5 |  | 
2 | 4-hydroxytamoxifen [4HT] |  | did not increase anti-tumor activity | not in response to anti-estrogen treatment
